This assay addresses Transient receptor potential cation channel subfamily M member 3 (UniProt J9SQF3). Briefly: Monitoring the TRPM3 Ion Channel Driven Ca2+ Uptake. How it is done: In order to monitor the inhibition of the mouse TRPM3α2 (mTRPM3) ion channel by the compounds of the invention, a cellular system making use of an mTRPM3alpha2 or hTRPM3 overexpressing cell line (flip-in HEK293) was used. The TRPM3 channel was stimulated/opened with Pregnenolone sulfate (PS) (50 μM) which results in Ca2+ influx. For mTRPM3, the intracellular Ca2+ was measured with a Calcium responsive dye. Fluor-4 AM ester (Invitrogen). Cells were cultured until a confluence of 80-90%, washed with Versene (Invitrogen) and detached from the surface by a short incubation with 0.05% Trypsin (Invitrogen). The trypsination process was stopped by the addition of complete cell culture medium (DMEM, glutamax, 10% FCS,NEAA,Pen-Strep). Cells were collected and resuspended in Krebs buffer without Calcium at RT. Prior the cell seeding (±2000 cells/well into a black, 384 well plate (Greiner)) the diluted compound was added in the assay plate, together with the PS dissolved in Krebs buffer containing Calcium. […] Directly after cell addition the plates were read on an Envision fluorescence reader (Perkin Elmer) by an Excitation of 485 nm and emission at 535 nm. Channel inhibition was calculated compared to a non-PS stimulated control versus a condition stimulated with PS (50 μM) with vehicle. The ability of the compounds of the invention to inhibit this activity was determined as: Percentage inhibition=[1-((RFU determined for sample with test compound present—RFU determined for sample with positive control inhibitor) divided by (RFU determined in the presence of vehicle—RFU determined for sample with positive control inhibitor))]*100.

Bounds are passed on as bounds.

Chain of Transient receptor potential cation channel subfamily M member 3 (J9SQF3 whole entry): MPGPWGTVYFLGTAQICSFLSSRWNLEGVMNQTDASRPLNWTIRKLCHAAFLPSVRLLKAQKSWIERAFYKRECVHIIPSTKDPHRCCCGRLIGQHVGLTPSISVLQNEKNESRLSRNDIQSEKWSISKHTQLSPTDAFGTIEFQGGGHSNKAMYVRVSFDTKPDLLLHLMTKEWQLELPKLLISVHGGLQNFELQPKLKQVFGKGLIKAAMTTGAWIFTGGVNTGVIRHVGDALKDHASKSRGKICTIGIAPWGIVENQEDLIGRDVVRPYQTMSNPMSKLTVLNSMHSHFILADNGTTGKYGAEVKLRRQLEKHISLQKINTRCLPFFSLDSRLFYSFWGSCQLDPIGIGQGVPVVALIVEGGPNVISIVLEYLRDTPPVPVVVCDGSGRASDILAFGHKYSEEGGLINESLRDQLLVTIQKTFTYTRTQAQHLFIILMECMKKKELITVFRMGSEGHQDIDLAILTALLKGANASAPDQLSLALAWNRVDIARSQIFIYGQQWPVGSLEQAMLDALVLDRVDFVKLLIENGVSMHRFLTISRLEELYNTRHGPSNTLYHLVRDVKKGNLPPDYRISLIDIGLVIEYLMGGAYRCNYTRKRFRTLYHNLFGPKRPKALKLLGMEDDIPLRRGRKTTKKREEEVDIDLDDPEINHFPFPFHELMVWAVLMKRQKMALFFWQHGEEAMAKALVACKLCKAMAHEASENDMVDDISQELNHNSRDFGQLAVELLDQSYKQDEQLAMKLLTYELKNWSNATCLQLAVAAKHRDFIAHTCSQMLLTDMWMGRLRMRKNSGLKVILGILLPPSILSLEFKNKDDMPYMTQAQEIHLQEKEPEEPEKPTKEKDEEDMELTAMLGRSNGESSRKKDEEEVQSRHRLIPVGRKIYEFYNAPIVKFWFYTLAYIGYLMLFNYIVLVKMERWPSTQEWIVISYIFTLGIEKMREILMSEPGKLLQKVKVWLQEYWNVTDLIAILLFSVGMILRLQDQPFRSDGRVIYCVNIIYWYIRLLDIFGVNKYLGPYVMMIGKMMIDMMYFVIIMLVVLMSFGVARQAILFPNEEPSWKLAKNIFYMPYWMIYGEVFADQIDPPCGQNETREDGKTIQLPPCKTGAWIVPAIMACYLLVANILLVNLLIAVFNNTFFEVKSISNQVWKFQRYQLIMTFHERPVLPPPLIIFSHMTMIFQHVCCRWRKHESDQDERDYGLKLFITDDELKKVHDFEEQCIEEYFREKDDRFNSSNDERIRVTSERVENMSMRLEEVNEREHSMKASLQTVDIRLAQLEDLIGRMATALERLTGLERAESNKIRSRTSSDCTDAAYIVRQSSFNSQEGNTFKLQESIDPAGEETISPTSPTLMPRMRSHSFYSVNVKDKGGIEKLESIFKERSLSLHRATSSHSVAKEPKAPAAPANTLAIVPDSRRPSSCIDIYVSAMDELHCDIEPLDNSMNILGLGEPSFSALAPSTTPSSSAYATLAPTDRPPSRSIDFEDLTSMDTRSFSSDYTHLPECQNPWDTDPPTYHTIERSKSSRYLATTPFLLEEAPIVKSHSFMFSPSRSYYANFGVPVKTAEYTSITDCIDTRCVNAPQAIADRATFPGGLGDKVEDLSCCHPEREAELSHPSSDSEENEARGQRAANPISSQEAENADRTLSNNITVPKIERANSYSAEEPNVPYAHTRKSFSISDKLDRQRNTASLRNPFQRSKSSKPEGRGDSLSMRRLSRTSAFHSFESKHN

As for `Cc1nc(C)c(COc2ccc3oc(C)c(C(=O)N[C@H](CO)C(N)=O)c3c2)s1` [US12209081, Compound 458-En-2], the IC50 is under 1000 nM.
For the molecule `Cc1ncsc1COc1ccc2oc(C)c(C(=O)NC3(CN)CCC3)c2c1` [US12209081, Compound 137], the IC50 was under 1000 nM.
Take `Cc1oc2ccc(OCc3cccnc3C#N)cc2c1C(=O)NC1(CO)CCOCC1` [US12209081, Compound 347]: the concentration for half-maximal inhibition (IC50) was under 1000 nM.
For `Cc1oc2ccc(OCc3cccnc3C(F)(F)F)cc2c1C(=O)NC1(CO)COC1` [US12209081, Compound 133], the IC50 is under 1000 nM.
On to `Cc1oc2ccc(OCc3cccnn3)cc2c1C(=O)NC1CCNC1=O` (stereo not drawn) [US12209081, Compound 030], for which the IC50 is under 1000 nM.
For the molecule `Cc1oc2ccc(OCc3ccnn3CC(F)F)cc2c1C(=O)N[C@H](CO)C(N)=O` [US12209081, Compound 456-En-2], the 50% inhibitory concentration (IC50) is under 1000 nM.
The figure for `Cc1oc2ccc(OCc3cccnc3C(F)(F)F)cc2c1C(=O)Nc1cc[nH]n1` [US12209081, Compound 138] is under 1000 nM.
The molecule `Cc1oc2ccc(OCc3cncc(C(F)(F)F)c3)cc2c1C(=O)N[C@H]1CCNC1` [US12209081, Compound 055] came in with an IC50 of over 20000 nM.

For the origin of these results see BindingDB's records for patent US12209081 (Katholieke Universiteit Leuven, 2025).
